Experimental data as given in article PMC12632313 (bioRxiv, 2025).

Experiment: Ex-vivo stability in mouse whole blood
Format: in vitro ADME
Settings: male, C57BL/6, mouse

Work on “H-RPPGFSPFR-OH [Bradykinin (BK), Bradykinin]” yielded a half-life of 3.9 ± 1.3 min.
